Measured values reported in patent US7531530B2, “Therapeutic compounds” (Cancer Research Technology Limited, priority 2003, dated 2009).

What was measured:
[1] = target: T1, PARP (Mus musculus, UniProt P11103); assay: Cellular PARP activity assay, permeabilised L1210 cells; assay type: cell-based; conditions: L1210 cells permeabilised with digitonin prior to adding the inhibitor
T1 construct: endogenous in cells; host or cells: L1210 cells
Description: (§1) Exponentially growing cells were exposed to 1% DMSO in culture medium (control) or a compound of formula I or III in 1% DMSO at the concentrations indicated in FIG. 4 to cells permeabilised with digitonin, or intact cells for 20 minutes prior to washing and digitonin-permeabilization. PARP activity was measured by incorporation of a [32P] labelled NAD+ substrate into TCA precipitateble polymers after stimulation by the addition of a blunt-ended oligonucleotide and compared with non-oligonucleotide-stimulated cells. PARP activity in tumour homogenates (1 in 40 in isotonic buffer) from formula III-treated mice was measured in the same way. PARP activity in pbls and tumour homogenates from formula I-phosphate treated mice was measured by immunological detection of polymer using the 10H antibody. Briefly, tumour homogenates diluted to up to 1:1000 in isotonic buffer were incubated with 350 μM NAD for 6 min and blotted onto nitrocellulose membrane. The poly(ADP-ribose) (PAR) polymer formation was quantified by chemiluminescence detection using a Fuji LAS3000 UV Illuminator by reference to serial dilutions of a PAR standard, following incubation with 10H antibody to PAR and a secondary anti-mouse antibody.

[2] = system: SW620 xenografts; assay: Tumour growth in mice bearing SW620 xenografts; assay type: in vivo; conditions: formula III 15 mg/kg daily×5 in conjunction with temozolomide
Source text: FIG. 8 is a graph showing the tumour growth (median relative tumour volume) in mice bearing SW620 xenografts following treatment with formula III in combination with temozolomide (TMZ) and with TMZ alone;
FIG. 9 is a graph showing the tumour growth (median relative tumour volume) of mice bearing SW620 xenografts following treatment with formula I-phosphate in combination with temozolomide (TMZ) and with formula I-phosphate and TMZ alone;
However, shortly after this time the tumour size begins to increase.

[3] = Plasma and tumour pharmacokinetics in mice bearing SW620 xenografts; assay type: in vivo
[4] = target: T2, PARP (tumour PARP act) (Homo sapiens, UniProt P09874); assay: PARP activity in SW620 tumour homogenates of formula III-treated mice ([32P] NAD+ incorporation); assay type: in vivo; conditions: formula III 10 mg/kg intraperitoneal; SW620 xenografts
T2 construct: from tissue; host or cells: SW620 xenograft tumour homogenates from treated mice
T2 sequence (P09874 whole entry): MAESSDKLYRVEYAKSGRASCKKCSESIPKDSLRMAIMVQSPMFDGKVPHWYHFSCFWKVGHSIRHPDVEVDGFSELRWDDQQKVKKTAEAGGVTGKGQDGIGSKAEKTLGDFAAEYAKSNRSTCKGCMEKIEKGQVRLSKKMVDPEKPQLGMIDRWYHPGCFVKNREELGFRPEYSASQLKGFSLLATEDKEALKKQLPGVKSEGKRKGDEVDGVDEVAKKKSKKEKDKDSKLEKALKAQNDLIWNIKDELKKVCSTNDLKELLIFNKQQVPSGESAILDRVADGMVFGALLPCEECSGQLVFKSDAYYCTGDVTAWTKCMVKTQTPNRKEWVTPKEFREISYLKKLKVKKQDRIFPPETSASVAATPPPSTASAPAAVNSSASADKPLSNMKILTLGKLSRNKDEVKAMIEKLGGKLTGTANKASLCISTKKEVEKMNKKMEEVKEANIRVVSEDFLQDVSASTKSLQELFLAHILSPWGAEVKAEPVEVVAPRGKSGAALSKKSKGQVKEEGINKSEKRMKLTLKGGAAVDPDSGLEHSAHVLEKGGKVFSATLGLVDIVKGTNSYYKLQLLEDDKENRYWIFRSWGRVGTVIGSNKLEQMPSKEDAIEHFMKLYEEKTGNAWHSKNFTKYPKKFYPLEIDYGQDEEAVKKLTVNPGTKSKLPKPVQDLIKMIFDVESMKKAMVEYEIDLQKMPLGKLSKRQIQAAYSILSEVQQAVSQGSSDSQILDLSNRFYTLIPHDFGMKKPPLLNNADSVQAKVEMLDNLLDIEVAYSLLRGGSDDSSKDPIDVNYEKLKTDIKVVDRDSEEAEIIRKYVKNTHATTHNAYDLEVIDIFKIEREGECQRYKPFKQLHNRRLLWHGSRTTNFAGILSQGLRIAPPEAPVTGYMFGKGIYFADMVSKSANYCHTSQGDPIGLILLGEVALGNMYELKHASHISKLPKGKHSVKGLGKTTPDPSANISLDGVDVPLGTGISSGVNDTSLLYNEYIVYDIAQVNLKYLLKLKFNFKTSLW
Description: as §1

[5] = target: T1, PARP; assay: Cellular PARP activity assay, intact L1210 cells; assay type: cell-based; conditions: intact L1210 cells exposed for 20 minutes prior to permeabilisation
Description: as §1

[6] = Solubility; assay type: physicochemical; conditions: phosphate salt versus parent compound
[7] = target: PARP (tumour PARP) (Homo sapiens, UniProt P09874); assay: PARP activity in SW620 tumour homogenates of formula I-phosphate treated mice (10H antibody); assay type: in vivo
Chain of PARP (tumour PARP) (P09874 whole entry): as above

[8] = target: T3, PARP (pbl parp) (Mus musculus, UniProt P11103); assay: PARP activity in peripheral blood lymphocytes of formula I-phosphate treated mice (10H antibody); assay type: in vivo
T3 construct: from tissue; host or cells: peripheral blood lymphocytes of treated mice
T3 sequence (P11103 whole entry): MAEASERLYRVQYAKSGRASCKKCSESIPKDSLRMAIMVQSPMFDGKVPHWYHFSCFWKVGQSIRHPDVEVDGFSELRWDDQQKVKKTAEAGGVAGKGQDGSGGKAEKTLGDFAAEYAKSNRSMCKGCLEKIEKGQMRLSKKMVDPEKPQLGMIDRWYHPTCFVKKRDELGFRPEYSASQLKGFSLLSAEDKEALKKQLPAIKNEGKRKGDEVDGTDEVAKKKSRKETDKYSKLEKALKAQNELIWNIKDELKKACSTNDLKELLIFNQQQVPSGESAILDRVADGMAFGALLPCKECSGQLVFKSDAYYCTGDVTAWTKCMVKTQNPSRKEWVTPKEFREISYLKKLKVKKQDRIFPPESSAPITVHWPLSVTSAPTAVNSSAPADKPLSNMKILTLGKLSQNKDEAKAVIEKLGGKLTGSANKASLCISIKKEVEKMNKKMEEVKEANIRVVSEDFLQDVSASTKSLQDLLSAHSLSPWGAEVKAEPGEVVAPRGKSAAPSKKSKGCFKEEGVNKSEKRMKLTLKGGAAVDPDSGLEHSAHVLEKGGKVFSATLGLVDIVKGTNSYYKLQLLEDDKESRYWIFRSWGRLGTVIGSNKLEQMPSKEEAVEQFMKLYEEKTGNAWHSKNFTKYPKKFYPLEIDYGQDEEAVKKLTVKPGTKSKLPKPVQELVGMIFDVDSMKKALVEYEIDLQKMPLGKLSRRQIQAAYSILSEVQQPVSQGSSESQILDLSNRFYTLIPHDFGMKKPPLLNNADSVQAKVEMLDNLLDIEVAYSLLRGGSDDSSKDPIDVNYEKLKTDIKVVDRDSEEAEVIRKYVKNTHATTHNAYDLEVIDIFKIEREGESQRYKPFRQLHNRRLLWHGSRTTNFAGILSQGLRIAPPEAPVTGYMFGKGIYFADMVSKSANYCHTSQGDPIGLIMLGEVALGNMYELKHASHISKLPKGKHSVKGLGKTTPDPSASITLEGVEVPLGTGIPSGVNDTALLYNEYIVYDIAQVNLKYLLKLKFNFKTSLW

[9] = formula III 10 mg/kg intraperitoneal
[10] = formula I-phosphate 1 mg/kg, compared with 10 mg/kg
[11] = formula I-phosphate 10 mg/kg intraperitoneal, 24 hr after administration
[12] = formula I-phosphate 10 mg/kg intraperitoneal, thirty minutes after administration

T1 sequence (P11103 whole entry): as above

| Structure (SMILES) | PARP inhibitory activity, formula I compared with formula III [1] | tumour outcome at autopsy at the end of the experiment [2] | distribution to the tumour [3, 9] | retention in tumour versus plasma with time [3, 9] | PARP activity in the tumour [4] | PARP inhibitory activity, formula I compared with formula III [5] | solubility relative to formula I [6] | effect on PARP activity in tumour [7, 10] | PARP activity in tumour ([7]; formula I-phosphate 10 mg/kg intraperitoneal, up to 24 hr, SW620 xenografts) | effect on PARP activity in pbls [8, 10] | PARP activity in pbls ([8]; formula I-phosphate 10 mg/kg intraperitoneal, up to 24 hr) | plasma concentration of formula I [3, 10] | tumour concentration of formula I [3, 10] | decrease of concentration with time, plasma versus tumour ([3]; formula I-phosphate 10 mg/kg intraperitoneal) | plasma concentration of parent compound (formula I) [3, 11] | tumour concentration of parent compound (formula I) [3, 11] | plasma concentration of parent compound (formula I) [3, 12] | tumour concentration of parent compound (formula I) [3, 12] |
| --- | --- | --- | --- | --- | --- | --- | --- | --- | --- | --- | --- | --- | --- | --- | --- | --- | --- | --- |
| CN(C)Cc1ccc(-c2nc3cccc4c3n2CCNC4=O)cc1 [formula III] | no difference | complete tumour regression | distributes well to the tumour | preferentially retained with time | inhibits PARP activity |  |  |  |  |  |  |  |  |  |  |  |  |  |
| CNCc1ccc(-c2[nH]c3cc(F)cc4c3c2CCNC4=O)cc1 [formula I] | no difference |  |  |  |  | more potent |  |  |  |  |  |  |  |  |  |  |  |  |
| CNCc1ccc(-c2[nH]c3cc(F)cc4c3c2CCNC4=O)cc1.O=P(O)(O)O [formula I-phosphate] |  |  |  |  |  |  | increases the solubility | less pronounced effect | < 50 % control | less pronounced effect | < 50 % control | lower levels | lower levels | more rapidly in the plasma than in the tumour | none could be detected | significant levels were detectable | high levels | high levels |
